The target of assay [1] is T1, purified recombinant human JAK3 protein (Homo sapiens, UniProt P52333).
T1 construct: purchased Carna Biosciences, Inc
T1 sequence (P52333 1-1124): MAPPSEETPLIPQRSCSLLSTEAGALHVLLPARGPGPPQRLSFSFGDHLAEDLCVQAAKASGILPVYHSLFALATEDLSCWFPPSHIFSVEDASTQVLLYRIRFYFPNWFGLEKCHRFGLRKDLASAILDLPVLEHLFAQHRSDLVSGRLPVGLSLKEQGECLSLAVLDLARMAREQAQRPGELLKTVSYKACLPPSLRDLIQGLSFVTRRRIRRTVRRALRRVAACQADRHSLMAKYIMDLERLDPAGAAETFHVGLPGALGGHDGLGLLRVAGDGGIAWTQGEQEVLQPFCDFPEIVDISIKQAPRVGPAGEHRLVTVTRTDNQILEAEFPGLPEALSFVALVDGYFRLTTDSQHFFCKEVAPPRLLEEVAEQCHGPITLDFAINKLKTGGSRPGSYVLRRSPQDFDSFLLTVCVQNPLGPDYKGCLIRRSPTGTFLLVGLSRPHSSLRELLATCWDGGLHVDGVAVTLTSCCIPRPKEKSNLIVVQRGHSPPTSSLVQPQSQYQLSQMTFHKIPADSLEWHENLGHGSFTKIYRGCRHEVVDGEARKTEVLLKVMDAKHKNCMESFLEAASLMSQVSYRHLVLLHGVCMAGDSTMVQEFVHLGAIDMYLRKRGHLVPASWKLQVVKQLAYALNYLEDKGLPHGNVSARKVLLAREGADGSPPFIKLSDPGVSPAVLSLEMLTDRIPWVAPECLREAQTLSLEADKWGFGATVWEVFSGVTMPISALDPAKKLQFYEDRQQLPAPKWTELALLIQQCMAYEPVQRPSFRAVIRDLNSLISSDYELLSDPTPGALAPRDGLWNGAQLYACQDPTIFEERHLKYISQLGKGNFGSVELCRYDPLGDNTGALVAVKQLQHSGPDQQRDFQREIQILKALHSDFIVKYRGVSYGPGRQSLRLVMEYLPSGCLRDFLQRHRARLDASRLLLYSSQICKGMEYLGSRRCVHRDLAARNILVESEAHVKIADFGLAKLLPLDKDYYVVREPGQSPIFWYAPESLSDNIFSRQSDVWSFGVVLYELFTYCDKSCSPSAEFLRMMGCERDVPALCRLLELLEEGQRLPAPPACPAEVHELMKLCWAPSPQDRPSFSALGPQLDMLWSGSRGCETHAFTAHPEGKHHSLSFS
In words: Measurement of JAK3 kinase-inhibitory activity. Format: biochemical. Particulars: substrate peptide 1 μM, ATP 5 μM, 25° C., 80 minutes. The protocol:
3) Measurement of JAK3 Kinase-Inhibitory Activity
The activity of the compound of the present invention to inhibit the activity of JAK3 kinase was measured.
Among materials for the measurement of this inhibitory activity, a substrate peptide and a kinase protein were acquired as follows. As such a substrate peptide, a substrate peptide for QSS Assist™ JAK3-MSA assay kit (Carna Biosciences, Inc.) was purchased. As such a kinase protein, a purified recombinant human JAK3 protein (Carna Biosciences, Inc.) was purchased.
The method for measuring the inhibitory activity is as follows. First, a serial dilution of the compound of the present invention was prepared by the same method as that described in the above section regarding JAK1. This serial dilution solution (the final concentration of DMSO upon a kinase reaction: 5.0%) or DMSO (final concentration: 5.0%) was mixed with a solution containing the substrate peptide (final concentration: 1 μM), magnesium chloride (final concentration: 5 mM) and ATP (final concentration: 5 μM) in a buffer for kinase reaction (20 mM HEPES (pH 7.5), 2 mM dithiothreitol and 0.01% Triton X-100). Thereafter, a JAK3 protein was further added to the mixed solution, and the obtained mixture was then incubated at 25° C. for 80 minutes to carry out a kinase reaction. To the reaction solution, EDTA was added to a final concentration of 30 mM, so as to terminate the reaction. After termination of the reaction, the measurement and the data analysis were carried out by the same methods as those described in the above section regarding JAK1.

Assay [2] addresses T2, purified recombinant human JAK1 protein (Homo sapiens, UniProt P23458).
T2 construct: purchased Carna Biosciences, Inc
In words: Measurement of JAK1 kinase-inhibitory activity. The format is biochemical. Particulars: substrate peptide 1 μM, ATP 75 M (so in the source), 25° C., 120 minutes. How it is done: 1) Measurement of JAK1 Kinase-Inhibitory Activity
The activity of the compound of the present invention to inhibit the activity of JAK1 kinase was measured.
Among materials for the measurement of this inhibitory activity, a substrate peptide and a kinase protein were acquired as follows. As such a substrate peptide, a substrate peptide for QSS Assist™ JAK1-MSA assay kit (Carna Biosciences, Inc.) was purchased. As such a kinase protein, a purified recombinant human JAK1 protein (Carna Biosciences, Inc.) was purchased.
The method for measuring the inhibitory activity is as follows. First, the compounds of the present invention were each dissolved in dimethyl sulfoxide (DMSO), and a serial dilution was then prepared by the use of DMSO. Subsequently, a serial dilution solution of the compound (the final concentration of DMSO upon a kinase reaction: 5.0%) or DMSO (final concentration: 5.0%) was mixed with a solution containing the substrate peptide (final concentration: 1 μM), magnesium chloride (final concentration: 5 mM) and ATP (final concentration: 75 µM) in a buffer for kinase reaction (20 mM HEPES (pH 7.5), 2 mM dithiothreitol and 0.01% Triton X-100). Thereafter, a JAK1 protein was further added to the mixed solution, and the obtained mixture was then incubated at 25° C. for 120 minutes to carry out a kinase reaction. To the reaction solution, EDTA was added to a final concentration of 30 mM, so as to terminate the reaction. Finally, with LabChip EZ Reader II (Perkin Elmer Corp.), an unphosphorylated substrate peptide (S) and a phosphorylated peptide (P) were subjected to microchannel capillary electrophoresis, so that the two peptides were separated from each other and were then detected. The amount of a phosphorylation reaction was obtained based on the heights of the peaks of S and P, and the concentration of the compound capable of inhibiting 50% of the phosphorylation reaction was defined as an IC50 value (nM).

A word on the IC50: it is the midpoint of a concentration-inhibition curve.

T2 sequence (P23458 whole entry): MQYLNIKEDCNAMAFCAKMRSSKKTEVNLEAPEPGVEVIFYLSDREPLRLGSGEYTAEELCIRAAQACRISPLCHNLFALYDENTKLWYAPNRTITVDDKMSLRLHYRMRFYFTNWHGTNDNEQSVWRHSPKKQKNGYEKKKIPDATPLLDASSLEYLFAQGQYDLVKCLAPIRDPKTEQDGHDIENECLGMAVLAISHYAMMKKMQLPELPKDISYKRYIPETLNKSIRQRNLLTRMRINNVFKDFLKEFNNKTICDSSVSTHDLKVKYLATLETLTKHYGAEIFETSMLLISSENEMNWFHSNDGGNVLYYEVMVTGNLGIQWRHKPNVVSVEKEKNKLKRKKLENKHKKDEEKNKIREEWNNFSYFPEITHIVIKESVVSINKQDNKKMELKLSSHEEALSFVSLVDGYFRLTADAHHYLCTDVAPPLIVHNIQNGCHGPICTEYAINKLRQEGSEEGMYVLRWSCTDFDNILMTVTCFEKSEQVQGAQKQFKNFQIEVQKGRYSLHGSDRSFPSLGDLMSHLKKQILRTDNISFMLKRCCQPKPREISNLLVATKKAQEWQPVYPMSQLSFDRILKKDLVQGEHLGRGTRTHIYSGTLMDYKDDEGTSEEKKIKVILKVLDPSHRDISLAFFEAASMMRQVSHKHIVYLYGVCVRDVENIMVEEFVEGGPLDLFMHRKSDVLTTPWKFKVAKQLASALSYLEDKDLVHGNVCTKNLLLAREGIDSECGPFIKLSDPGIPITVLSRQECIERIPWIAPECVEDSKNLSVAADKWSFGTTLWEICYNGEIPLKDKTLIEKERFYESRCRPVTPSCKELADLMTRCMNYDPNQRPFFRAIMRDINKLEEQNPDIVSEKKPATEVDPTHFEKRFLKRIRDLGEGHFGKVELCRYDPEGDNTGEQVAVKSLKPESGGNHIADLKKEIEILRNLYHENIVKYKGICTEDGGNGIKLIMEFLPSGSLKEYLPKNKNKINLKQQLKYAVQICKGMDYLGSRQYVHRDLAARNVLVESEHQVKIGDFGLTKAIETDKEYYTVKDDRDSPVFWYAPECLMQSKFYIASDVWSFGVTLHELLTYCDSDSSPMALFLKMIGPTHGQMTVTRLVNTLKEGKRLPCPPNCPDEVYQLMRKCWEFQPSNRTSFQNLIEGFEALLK

Consider `Cc1nc(-c2c[nH]c3ncc(-c4ccccc4)cc23)cs1` [Comparative Example 3, 2-Methyl-4-(5-phenyl-1H-pyrrolo[2,3-b]pyridin-3-yl)thiazole, reference compound], for which the IC50 is 460 nM in assay [1] and 2900 nM in assay [2].
On to `C=CC(=O)NC1CCC=C(c2ccnc3[nH]cc(-c4ccc(F)nc4)c23)C1` (stereo not drawn) [Compound 37, N-(3-(3-(6-Fluoropyridin-3-yl)-1H-pyrrolo[2,3-b]pyridin-4-yl)cyclohex-3-en-1-yl)acrylamide], for which the IC50 in assay [1] is < 0.3 nM; in assay [2], 4400 nM.
Turning to `C=CC(=O)NC1CCC=C(c2ccnc3[nH]cc(-c4ccccc4)c23)C1` (stereo not drawn) [Compound 1, N-(3-(3-Phenyl-1H-pyrrolo[2,3-b]pyridin-4-yl)cyclohex-3-en-1-yl)acrylamide], the IC50 in assay [1] was < 0.3 nM; in assay [2] it was 740 nM.
In the same order, the values of `C=CC(=O)NC1CCC=C(c2ccnc3[nH]cc(-c4nnco4)c23)C1` (stereo not drawn) [Compound 49, N-(3-(3-(1,3,4-Oxadiazol-2-yl)-1H-pyrrolo[2,3-b]pyridin-4-yl)cyclohex-3-en-1-yl)acrylamide] are < 0.3 nM and 3400 nM.
For the compound `C=CC(=O)NC1CCC=C(c2ccnc3[nH]cc(-c4cnco4)c23)C1` (stereo not drawn) [Compound 48, N-(3-(3-(Oxazol-5-yl)-1H-pyrrolo[2,3-b]pyridin-4-yl)cyclohex-3-en-1-yl)acrylamide], the IC50 was < 0.3 nM in assay [1] and 2400 nM in assay [2].
Regarding `C1=C(c2ccnc3[nH]ccc23)CCC1` [Comparative Example 2, 4-(Cyclopent-1-en-1-yl)-1H-pyrrolo[2,3-b]pyridine, reference compound], the IC50 in assay [1] came out at 350 nM; in assay [2] it was 2200 nM.
As to `C=CC(=O)NC1CCC=C(c2ccnc3[nH]cc(-c4ccco4)c23)C1` (stereo not drawn) [Compound 12, N-(3-(3-(Furan-2-yl)-1H-pyrrolo[2,3-b]pyridin-4-yl)cyclohex-3-en-1-yl)acrylamide], the IC50 is < 0.3 nM in assay [1] and 780 nM in assay [2].
Consider `C=CC(=O)NC1CCC=C(c2ccnc3[nH]cc(-c4cn[nH]c4)c23)C1` (stereo not drawn) [Compound 3, N-(3-(3-(1H-Pyrazol-4-yl)-1H-pyrrolo[2,3-b]pyridin-4-yl)cyclohex-3-en-1-yl)acrylamide], for which the IC50 was < 0.3 nM in assay [1] and 1900 nM in assay [2].
As to `C=CC(=O)NC1CCC=C(c2ccnc3[nH]cc(-c4cccnc4OC)c23)C1` (stereo not drawn) [Compound 6, N-(3-(3-(2-Methoxypyridin-3-yl)-1H-pyrrolo[2,3-b]pyridin-4-yl)cyclohex-3-en-1-yl)acrylamide], the IC50 was determined as 0.42 nM in assay [1] and 1100 nM in assay [2].
`C=CC(=O)NC1CC=C(c2ccnc3[nH]cc(-c4nnco4)c23)C1` (stereo not drawn) [Compound 57, N-(3-(3-(1,3,4-Oxadiazol-2-yl)-1H-pyrrolo[2,3-b]pyridin-4-yl)cyclopent-3-en-1-yl)acrylamide]: the IC50 in assay [1] turned out to be 0.57 nM; in assay [2] it was 3500 nM.
As for `C=CC(=O)NC1CCC=C(c2ccnc3[nH]cc(-c4nn(C)c(=O)o4)c23)C1` (stereo not drawn) [Compound 53, N-(3-(3-(4-Methyl-5-oxo-4,5-dihydro-1,3,4-oxadiazol-2-yl)-1H-pyrrolo[2,3-b]pyridin-4-yl)cyclohex-3-en-1-yl)acrylamide], the IC50 in assay [1] was < 0.3 nM; in assay [2] it was 3900 nM.
Turning to `C=CC(=O)NC1CCC=C(c2ccnc3[nH]cc(C4=CCOC4)c23)C1` (stereo not drawn) [Compound 34, N-(3-(3-(2,5-Dihydrofuran-3-yl)-1H-pyrrolo[2,3-b]pyridin-4-yl)cyclohex-3-en-1-yl)acrylamide], the IC50 in assay [1] was < 0.3 nM; in assay [2], 2400 nM.
Take `C=CC(=O)NC1CCC=C(c2ccnc3[nH]cc(-c4nncs4)c23)C1` (stereo not drawn) [Compound 54]: the IC50 was found to be 0.45 nM in assay [1] and 6900 nM in assay [2].
With `C1=C(c2ccnc3[nH]ccc23)CCCC1` [Comparative Example 1, reference compound], the IC50 in assay [1] turned out to be 250 nM; in assay [2], 1200 nM.
In the same order, the values of `C=CC(=O)NC1CCC=C(c2ccnc3[nH]cc(-c4cc(CO)co4)c23)C1` (stereo not drawn) [Compound 14, N-(3-(3-(4-(Hydroxymethyl)furan-2-yl)-1H-pyrrolo[2,3-b]pyridin-4-yl)cyclohex-3-en-1-yl)acrylamide] are < 0.3 nM and 3200 nM.
As for `C=CC(=O)N[C@H]1CCC=C(c2ccnc3[nH]cc(-c4ccno4)c23)C1` [Compound 59], the IC50 in assay [1] is < 0.3 nM; in assay [2], 1500 nM.
As to `C=CC(=O)NC1CCC=C(c2ccnc3[nH]cc(-c4ccc(CO)o4)c23)C1` (stereo not drawn) [Compound 10, N-(3-(3-(5-(Hydroxymethyl)furan-2-yl)-1H-pyrrolo[2,3-b]pyridin-4-yl)cyclohex-3-en-1-yl)acrylamide], the IC50 was < 0.3 nM in assay [1] and 1900 nM in assay [2].
Consider `C=CC(=O)N[C@H]1CCC=C(c2ccnc3[nH]cc(-c4nnco4)c23)C1` [Compound 55, (S)—N-(3-(3-(1,3,4-Oxadiazol-2-yl)-1H-pyrrolo[2,3-b]pyridin-4-yl)cyclohex-3-en-1-yl)acrylamide], for which the figures for the IC50 in assay [1] and in assay [2] were < 0.3 nM and 1000 nM, respectively.

(Values after patent publication US9676773B2, “Azaindole derivative” (TAIHO PHARMACEUTICAL CO., LTD., priority 2014, dated 2017).)
